Records with an inconclusive call do not appear. Activity calls are given as the source filed them. How the calls were made is not given here.
Legend:
[1] = test system: U251 HRAS cells, caspase 3/7 luminescence, apoptosis; experiment: caspase 3/7 activation in U251 cells, mechanism study for HRAS target identification, cell-based, luminescence, several timepoints, dry powder (AID 720615)
[2] = as above; details: U251 HRAS cells, caspase 3/7 luminescence, apoptosis; at 35 µM (top of the series)

SMILES	AC40 [1] [µM]	AC40 ([1]; measured here: timepoint 1 caspase activation) [µM]	AC40 ([1]; measured here: timepoint 2 caspase activation) [µM]	AC40 ([1]; measured here: timepoint 3 caspase activation) [µM]	caspase 3/7 activation [2]
COc1ccc(N(C(=O)CCl)C(C(=O)NCCc2ccccc2)c2cccs2)cc1Cl (stereo not given)	5.7	14.7	1.45	0.948	
CCC(=O)N(c1ccc(OC)c(Cl)c1)C(C(=O)NCCc1ccccc1)c1cccs1 (stereo not given)					4.74% (inactive)

Reference: PubChem BioAssay AID720615 (Broad Institute, 2013)
